Source: US5855906A, “Intravaginal drug delivery devices for the administration of 17β-oestradiol precursors” (priority 1994, dated 1999)
Values after ≈ are worked out from the molar mass of the structure shown. “Also recorded” adds a separate entry of the source. Read-outs that look alike come from different tables or passages of the source. Blank lines part the entries; values can stand above or below the compound they belong to.

Columns and labels:
[1] = In vitro release from rings of varying core length and apparent/standard k value (Crank's equation); format: physicochemical; parameters: Standard k: unit not given here; conditions: for apparent k value versus core length: Table 3 rings; for apparent k value versus core length / k: 1% (w/v) BKC; for Mean Daily Release / Standard k: Table 4; for Mean Daily Release / Mean Daily Release (as precursor): n = 5; for k (standard k) / k (using core of 141 mm length): Table 5; for k: in µg/day/mm; for Mean Daily Release (as precursor): 250 ml 1% (w/v) BKC
From the text: Precursor release from a cylindrical device of core design, which comprises a polymer matrix in the form of a core incorporating 17β-oestradiol precursor and a sheath surrounding the core, can be described by Crank's equation: [formula] in which R=precursor release rate (μg/day)
Crank's equation relates the precursor release rate (R), in sink conditions, to the solubility (C2 S) and diffusibility (D) of the precursor in the polymer matrix, its partition characteristics (π) between the polymer matrix and the dissolution medium; and the ring dimensions (l, b, a). For any given precursor in any given polymer matrix, CS, D and π will be constant and can be grouped together to form the composite constant, k:
The k value can be empirically derived using Crank's equation in the following manner: [formula]
The k value is dependent on core length for certain of the 17β-oestradiol precursors (see Example 6 hereinafter). Accordingly, the k value at a core length of 35 mm has been denoted "standard k" value hereinafter.
Intravaginal drug delivery devices in the form of rings were prepared, each with a ring geometry as described in Table 3, by following the General Method of Manufacture set out hereinabove.
The dissolution medium was changed daily, following the protocol set out hereinabove. Mean daily release rates from the second week of dissolution experiments were used to determine the apparent k values presented in Table 3.
It was, therefore, decided to determine k values at a core length of 35 mm and such k values are hereinafter referred to as "standard k" values.
The standard k value was determined from the mean daily release rates observed in Example 6. The dissolution medium of 1.0% (w/v) of an aqueous solution of benzalkonium chloride was used in respect of the various 17β-oestradiol precursors, so as to ensure sink conditions.

[2] = Silicone solubility at 37 °C in Dow Corning 360 medical fluid; format: physicochemical; conditions: organic solvent or mixture
Experimental: Silicone solubility was determined at 37° C. in Dow Corning (Trade Mark) 360 medical fluid.

[3] = In vitro dissolution: mean daily release from full-length-core rings over up to 90 days in three media; format: physicochemical; parameters: key to Mean Daily Release: **: Not detected; conditions: 9 × 54 mm ring, core 141 × 2 mm, 37 °C, N = 4
From the text: In all cases the ring geometries comprise a ring of dimensions 9 mm (cross-sectional diameter)×54 mm (outer diameter) and containing a full length core (141 mm) of cross-sectional diameter 2 mm. […] The saline and benzalkonium chloride-containing media were chosen to ensure `sink conditions` in at least one medium for each intravaginal ring. It will be recognised by those skilled in the art that the term `sink conditions` refers to that set of experimental conditions in vitro which effectively simulates the active haemoperfusion that occurs in vivo, and which results in a maximum drug concentration gradient and maximum drug diffusion rate, at any given time, across the aqueous boundary layer. Thus, an in vitro dissolution experiment can be designed such that the solution solubility of the released drug in the dissolution medium is much greater than its bulk concentration in this medium at any given time, for example, by micellar drug solubilisation due to incorporation of a surfactant such as benzalkonium chloride (BKC), at a concentration above its critical micelle concentration. Thus, each ring was suspended by a thread in an individual closed flask containing the dissolution medium, maintained at a constant temperature of 37° C. The contents of the flask were gently agitated in order to prevent the occurrence of a hydrostatic layer on the surface of the ring. After 24 hours, the ring was removed and suspended in a flask of fresh dissolution medium of identical volume by a method identical to that previously described.

[4] = In vitro plasma hydrolysis (stability in human blood at 37 °C)
[5] = Nominal in vitro daily release from intravaginal rings under sink conditions (1% w/v benzalkonium chloride, 37 °C); format: physicochemical; conditions: "100 μg" ring, core 2×141 mm
Experimental: The nominal in vitro release rates set out in Table 1 for the rings of Examples 1-5 were determined under sink conditions of 1% (w/v) benzalkonium chloride. These release rates were determined in the following manner.
Each ring (n=4) was suspended in the dissolution medium in an individual flask which is then capped, placed in a suitable oven at 37° C. and shaken. The dissolution medium was changed every 24 hours (±30 minutes). An aliquot of the used dissolution medium was analysed by high performance liquid chromatography (HPLC) using reverse phase packing and UV detection (at 235 nm for 17β-oestradiol-3-acetate and for
. The sensitivity of the original and improved analytical methods is 5 μg/100 ml.

[6] = Aqueous solubility in distilled water at 20 °C; conditions: for requisite aqueous solubility (not less than 1 μg per 100 ml): 20 °C
physchem = conditions: distilled water
[7] = compiled from Novel Drug Delivery Systems (Chien); cited from earlier work
[8] = shell ring; cited from earlier work
[9] = shell ring, 58 mm × 9.5 mm; cited from earlier work
[10] = non-oral preparations, read-out: plasma levels of 17β-oestradiol, cited from earlier work
[11] = cited from earlier work
[12] = 17β-oestradiol ring; EP 0 253 109 0.5 to 25 μg per day; Smith et al 5 to 10 μg per day; cited from earlier work
[13] = 1.0% (w/v) BKC, core length 35 mm
[14] = core length 35 mm, 1.0% (w/v) BKC

Structure (SMILES): CC(=O)O[C@H]1CC[C@H]2[C@@H]3CCc4cc(O)ccc4[C@H]3CC[C@]12C
apparent k value versus core length [1]: varies with core length
Mean Daily Release [1, 13]: 19.50 µg/day
Standard k [1, 14]: 0.838
k (standard k) ([1]; core length 35 mm): 0.838 μg/day/mm
k ([1]; core length 35 mm): 0.8380
Mean Daily Release (as precursor) ([1]; core length 35 mm): 19.50 µg/day
k ([1]; core length 70 mm): 0.8797
Mean Daily Release (as precursor) ([1]; core length 70 mm): 40.94 µg/day
k ([1]; core length 140 mm): 0.9395
Mean Daily Release (as precursor) ([1]; core length 140 mm): 87.45 µg/day
solubility ([2]; Dow Corning 360 medical fluid, 37 °C, read-out: Silicone solubility): 17 µg/mL (≈ 54.1 µM)
Mean Daily Release ([3]; 0.9% (w/v) saline): 24 μg per day
Mean Daily Release ([3]; 1.0% (w/v) BKC): 96 μg per day
half-life [4]: 4 h
nominal in vitro daily release rate [5]: 100 µg
solubility ([6]; water): 0.12 µg/mL (≈ 0.382 µM)

Structure (SMILES): CCC(=O)O[C@H]1CC[C@H]2[C@@H]3CCc4cc(O)ccc4[C@H]3CC[C@]12C
apparent k value versus core length [1]: varies with core length
Mean Daily Release [1, 13]: 42.86 µg/day
Standard k [1, 14]: 1.842
k (standard k) ([1]; core length 35 mm): 1.842 μg/day/mm
k ([1]; core length 17 mm): 2.130
Mean Daily Release (as precursor) ([1]; core length 17 mm): 24.08 µg/day
k ([1]; core length 35 mm): 1.842
Mean Daily Release (as precursor) ([1]; core length 35 mm): 42.86 µg/day
k ([1]; core length 70 mm): 1.795
Mean Daily Release (as precursor) ([1]; core length 70 mm): 83.54 µg/day
k ([1]; core length 140 mm): 1.667
Mean Daily Release (as precursor) ([1]; core length 140 mm): 155.20 µg/day
Mean Daily Release ([3]; 0.133% (w/v) BKC): 112 μg per day
Mean Daily Release ([3]; 0.9% (w/v) saline): 26 μg per day
Mean Daily Release ([3]; 1.0% (w/v) BKC): 218 μg per day
solubility (physchem): 0.05 µg/mL (≈ 0.152 µM)

Structure (SMILES): CCC(=O)Oc1ccc2c(c1)CC[C@@H]1[C@@H]2CC[C@]2(C)[C@@H](O)CC[C@@H]12
Mean Daily Release ([1]; 0.9% (w/v) saline, core length 35 mm): 250 to 350 µg/day
Mean Daily Release [1, 13]: 300.00 µg/day
Standard k [1, 14]: 12.89
k (standard k) ([1]; core length 35 mm): 12.89 μg/day/mm
k ([1]; core length 35 mm): 12.89
Mean Daily Release (as precursor) ([1]; core length 35 mm): 300.00 µg/day
k ([1]; core length 70 mm): 12.89
Mean Daily Release (as precursor) ([1]; core length 70 mm): 600.00 µg/day
k ([1]; core length 140 mm): 12.89
Mean Daily Release (as precursor) ([1]; core length 140 mm): 1200.00 µg/day
solubility [2]: 300 µg/mL (≈ 913 µM)
Mean Daily Release ([3]; 1.0% (w/v) BKC): 1200 μg per day
solubility (physchem): 2.3 µg/mL (≈ 7 µM)

k (using core of 141 mm length) [1]: 5.86 μg/day/mm
Mean Daily Release ([3]; 0.133% (w/v) BKC): 365 μg per day
Mean Daily Release ([3]; 0.9% (w/v) saline): **
Mean Daily Release ([3]; 1.0% (w/v) BKC): 550 μg per day
Structure (SMILES): CCCCC(=O)O[C@H]1CC[C@H]2[C@@H]3CCc4cc(O)ccc4[C@H]3CC[C@]12C [17β-oestradiol-17-valerate, reference compound]
Silicone solubility [7]: 15.02 mg/100 ml
requisite aqueous solubility (not less than 1 μg per 100 ml) [6]: too low; also recorded: not possessing the requisite aqueous solubility

Structure (SMILES): C[C@]12CC[C@@H]3c4ccc(O)cc4CC[C@H]3[C@@H]1CC[C@@H]2O [17β-oestradiol]
in vitro release rate of 17β-oestradiol [8]: 200 μg per day
k (using core of 141 mm length) [1]: 0.09 μg/day/mm
daily release [9]: 180 μg per day
Mean Daily Release ([3]; 0.9% (w/v) saline): 8 μg per day
concentration ([10]; transdermal 50 μg per day (low dose)): ~0.2 nM
concentration ([10]; transdermal 100 μg per day (high dose)): ~0.36 nM
initial serum 17β-oestradiol level ([11]; homogeneous ring 400 mg, within one hour, 60 min): about 700 pg/ml
mean serum 17β-oestradiol ([11]; shell ring (100, 200 or 400 mg), one hour after insertion, 60 min): 300 pg/mL
mean serum 17β-oestradiol (in words) ([11]; shell ring, baseline 24 pg/ml): approached the baseline level of 24 pg/ml within 24 hours; also recorded: falling back to the baseline at 2 and 3 months
alleviation of symptoms of hypo-oestrogenism (in words) [12]: symptoms in the human female arising from a hypo-oestrogenic condition can be alleviated; also recorded: effective at alleviating those symptoms associated with hypo-oestrogenism that relate specifically to atrophy of vaginal and urethral epithelium

Structure (SMILES): C#C[C@]1(O)CC[C@H]2[C@@H]3CCC4=CC(=O)CC[C@@H]4[C@H]3CC[C@@]21CC [levonorgestrel]
daily release [9]: 290 μg per day

Structure (SMILES): C[C@]12CC[C@@H]3c4ccc(OC(=O)c5ccccc5)cc4CC[C@H]3[C@@H]1CC[C@@H]2O [reference compound]
k (using core of 141 mm length) [1]: 0.70 μg/day/mm
Silicone solubility [7]: 3.68 mg/100 ml
Mean Daily Release ([3]; 0.133% (w/v) BKC): 42 μg per day
Mean Daily Release ([3]; 0.9% (w/v) saline): < 5 μg per day
Mean Daily Release ([3]; 1.0% (w/v) BKC): 66 μg per day
requisite aqueous solubility (not less than 1 μg per 100 ml) [6]: not possessing the requisite aqueous solubility
